Data: patent US9801850B2, “Antibacterial agent” (OSAKA UNIVERSITY, priority 2009, dated 2017)
Converted amounts (≈) assume the structure as drawn.

Key:
[1] = tested on: MSSA clinical isolate No. 5; experiment: MIC, broth microdilution (Example 2, Table 6); assay type: cell-based, Staphylococcus aureus
[2] = tested on: MRSA clinical isolate No. 11; experiment: MIC, broth microdilution (Example 2, Table 6); assay type: cell-based, Staphylococcus aureus
[3] = tested on: S. aureus NCTC8325 (MSSA); experiment: MIC, broth microdilution (Example 2, Table 6); assay type: cell-based, Staphylococcus aureus
Procedure: (§1) Methicillin-susceptible Staphylococcus aureus (MSSA) NCTC8325 and methicillin-resistant Staphylococcus aureus (MRSA) ATCC43300 were used as bacteria. The bacteria of each type were cultured using Mueller-Hinton Broth (MH-broth, Difco) as a medium. Then, the minimum inhibitory concentration (MIC) of each of the EGCG derivatives was measured by a broth microdilution method in accordance with the Clinical and Laboratory Standards Institute (CLSI) guidelines (hereinafter the same).
(§2) First, each of the EGCG derivatives was dissolved in 100% dimethyl sulfoxide (DMSO, Wako Pure Chemical Industries, Ltd.) so that the concentration thereof became 5120 μg/ml. The resultant solution was diluted with DMSO or sterile distilled water so as to prepare two-fold dilution series of antibacterial agent solutions. […] Each of these antibacterial agent solutions was dispensed to wells of a 96-well plate. The concentration of the EGCG derivative in the antibacterial agent solution dispensed to the wells was set to be 10 times as high as the final concentration. On the other hand, the bacteria were cultured in the MH-broth at 37° C. overnight, and the thus-obtained pre-culture solution was diluted with a new MH-broth so that the concentration thereof in the MH-broth became 10^−4 (10^4-fold dilution), thus preparing a bacterial culture solution of about 1×10^5 CFU/ml (CFU: Colony Forming Unit, the number of viable cells). The bacterial culture solution was further added to each well, and the mixture was cultured at 37° C. for 18 hours. The ratio (volume ratio) between the antibacterial agent solution and the bacterial culture solution added to each well was set to 1:9 (the antibacterial agent solution:the bacterial culture solution), and the volume of the mixture of them per well was set to 100 μl in total. The final concentration of the EGCG derivative in the mixture was set to 8 μg/ml to 512 μg/ml, and the number of viable cells in the mixture was set to about 1×10^5 CFU/ml. Then, after the completion of the culture, the MIC was determined. Also, the turbidity (OD600 nm) was measured using a plate reader so as to identify minor differences.
(§3) Each of the EGCG derivatives was dissolved in 100% DMSO so that the concentration thereof became 1280 μg/ml. The thus-obtained solutions were diluted with sterile distilled water, thus preparing antibacterial agent solutions.
(§4) As Comparative Example 2, the same procedures as in Example 2 were performed, except that unsubstituted EGCG was used as an antibacterial agent instead of the EGCG derivatives of Example 2. Furthermore, as a control, the same procedures as in Example 2 were performed, except that sterile distilled water was used instead of the antibacterial agent solutions containing the EGCG derivatives.

[4] = tested on: MRSA ATCC43300; experiment: MIC, broth microdilution (Example 2, Table 6); assay type: cell-based, Staphylococcus aureus
Procedure: as §1, §2, §3, §4

[5] = tested on: MRSA clinical isolate No. 9; experiment: MIC, broth microdilution (Example 2, Table 6); assay type: cell-based, Staphylococcus aureus
[6] = tested on: Candida albicans ATCC24433; experiment: MIC with respect to fungi, broth microdilution (Table 8); assay type: cell-based; conditions: RPMI1640/MOPS (pH 7.0), 35° C., 24 to 48 hours
Procedure: (§5) Regarding the respective type strains shown in Tables 7 and 8 below, the MIC measurement was performed using the antibacterial agent solutions of Example 2 in the same manner as described in Section (2) of Example 1, except for the following. The antibacterial agent solutions were prepared by dissolving the EGCG derivatives of Example 2 in 100% DMSO and then diluting the resultant mixtures with sterile distilled water. The respective strains were derived from ATCC or NCTC. As Moraxella catarrhalis and Aspergillus fumigatus, clinical isolates thereof without an acquired resistance mechanism were used. For nutrient-rich bacteria, namely, Streptococcus pneumoniae ATCC49619, Streptococcus pyogenes ATCC19615, Streptococcus agalactiae ATCC13813, Moraxella catarrhalis, and Haemophilis influenzae ATCC49766, Strepto Haemo supplement (Eiken Chemical Co., Ltd.) was added to media for culturing them. The MIC measurement with respect to fungi was carried out by a broth microdilution method using a RPMI1640/MOPS (pH 7.0) medium in accordance with CLSI guidelines. About 2×10^3 cells/ml of fungi were inoculated to the medium. After the culture at 35° C. for 24 to 48 hours, the MIC was determined. Also, regarding the antibacterial agent solution of Comparative Example 2, the MIC was measured in the same manner.

[7] = tested on: Candida parapsilosis ATCC22019; experiment: as above; assay type: cell-based; conditions: RPMI1640/MOPS (pH 7.0), 35° C., 24 to 48 hours
Procedure: as §5

[8] = tested on: Cryptococcus neoformans ATCC90112; experiment: as above; assay type: cell-based; conditions: RPMI1640/MOPS (pH 7.0), 35° C., 24 to 48 hours
Procedure: as §5

[9] = tested on: Candida krusei ATCC6258; experiment: as above; assay type: cell-based; conditions: RPMI1640/MOPS (pH 7.0), 35° C., 24 to 48 hours
Procedure: as §5

[10] = tested on: Aspergillus fumigatus; experiment: as above; assay type: cell-based; conditions: Aspergillus fumigatus clinical isolate; RPMI1640/MOPS (pH 7.0), 35° C., 24 to 48 hours
Procedure: as §5

[11] = tested on: Candida tropicalis ATCC750; experiment: as above; assay type: cell-based; conditions: RPMI1640/MOPS (pH 7.0), 35° C., 24 to 48 hours
Procedure: as §5

[12] = tested on: MRSA clinical isolate No. 12; experiment: MIC, broth microdilution (Example 2, Table 6); assay type: cell-based, Staphylococcus aureus
[13] = tested on: MSSA clinical isolate No. 3; experiment: MIC, broth microdilution (Example 2, Table 6); assay type: cell-based, Staphylococcus aureus
[14] = tested on: MSSA ATCC25923; experiment: MIC, broth microdilution (Example 2, Table 6); assay type: cell-based, Staphylococcus aureus
[15] = tested on: MSSA ATCC12600; experiment: MIC, broth microdilution (Example 2, Table 6); assay type: cell-based, Staphylococcus aureus
[16] = tested on: MRSA clinical isolate No. 8; experiment: MIC, broth microdilution (Example 2, Table 6); assay type: cell-based, Staphylococcus aureus
[17] = tested on: MRSA clinical isolate No. 6; experiment: MIC, broth microdilution (Example 2, Table 6); assay type: cell-based, Staphylococcus aureus
[18] = tested on: methicillin-resistant Staphylococcus aureus (MRSA) ATCC43300; experiment: MIC, broth microdilution (Example 1); assay type: cell-based; conditions: for MIC: MRSA ATCC43300, MH-broth, 37° C., 18 hours
Procedure: as §1, §2
as §4, with “1,” for “2,”, “1” for “2”, “1.” for “2.”, “water, 100% DMSO, or 50% DMSO” for “water”

[19] = tested on: Candida glabrata ATCC90030; experiment: MIC with respect to fungi, broth microdilution (Table 8); assay type: cell-based; conditions: RPMI1640/MOPS (pH 7.0), 35° C., 24 to 48 hours
Procedure: as §5

Compound | MIC [1] | MIC [2] | MIC [3] | MIC [4] | MIC [5] | MIC [6] | MIC [7] | MIC [8] | MIC [9] | MIC [10] | MIC [11] | MIC [12] | MIC [13] | MIC [14] | MIC [15] | MIC [16] | MIC [17] | MIC [18] | MIC [19] | inhibition of propagation (MIC, turbidity OD600 nm) ([18]; MRSA, FIG. 1 and Table 3)
EGCG-α-linoleate [EGCG-C18TE] | 16 µg/mL | 64 µg/mL | 4 µg/mL | 16 µg/mL | 64 µg/mL | 16 µg/mL | 16 µg/mL | 8 µg/mL | 16 µg/mL | 16 µg/mL | 16 µg/mL | 16 µg/mL | 16 µg/mL | 32 µg/mL | 16 µg/mL | 8 µg/mL | 16 µg/mL | – | – | –
EGCG-stearate [EGCG-C18] | 32 µg/mL | 64 µg/mL | 16 µg/mL | 32 µg/mL | – | 16 µg/mL | 16 µg/mL | 16 µg/mL | 16 µg/mL | 32 µg/mL | 32 µg/mL | 64 µg/mL | 32 µg/mL | 32 µg/mL | 32 µg/mL | 16 µg/mL | 32 µg/mL | 32 µg/mL | 16 µg/mL | –
EGCG-palmitate [EGCG-C16] | 16 µg/mL | 32 µg/mL | 8 µg/mL | 16 µg/mL | 32 µg/mL | 32 µg/mL | 16 µg/mL | 8 µg/mL | 16 µg/mL | 32 µg/mL | 32 µg/mL | 16 µg/mL | 16 µg/mL | 16 µg/mL | 16 µg/mL | 8 µg/mL | 16 µg/mL | 8 µg/mL | 16 µg/mL | remarkable propagation-inhibiting effect
EGCG-palmitoleate [EGCG-C16E] | 16 µg/mL | 64 µg/mL | 16 µg/mL | 16 µg/mL | 64 µg/mL | 16 µg/mL | 16 µg/mL | 8 µg/mL | 16 µg/mL | 16 µg/mL | 16 µg/mL | 16 µg/mL | 16 µg/mL | 32 µg/mL | 16 µg/mL | 8 µg/mL | 16 µg/mL | – | 16 µg/mL | –
EGCG-oleate [EGCG-C18E] | 32 µg/mL | 64 µg/mL | 16 µg/mL | 32 µg/mL | 64 µg/mL | 16 µg/mL | 16 µg/mL | 16 µg/mL | 16 µg/mL | 32 µg/mL | 32 µg/mL | 32 µg/mL | 32 µg/mL | 32 µg/mL | 32 µg/mL | 8 µg/mL | 32 µg/mL | – | 16 µg/mL | –
EGCG-linolate [EGCG-C18DE] | 16 µg/mL | 32 µg/mL | 16 µg/mL | 16 µg/mL | 64 µg/mL | 16 µg/mL | 16 µg/mL | 8 µg/mL | 16 µg/mL | 32 µg/mL | 32 µg/mL | 16 µg/mL | 16 µg/mL | 32 µg/mL | 16 µg/mL | 8 µg/mL | 32 µg/mL | – | – | –
EGCG-dioctanoate [EGCG-C8×2] | 16 µg/mL | 32 µg/mL | 4 µg/mL | 16 µg/mL | 16 µg/mL | 32 µg/mL | 16 µg/mL | 16 µg/mL | 16 µg/mL | 32 µg/mL | 32 µg/mL | 16 µg/mL | 16 µg/mL | 16 µg/mL | 8 µg/mL | 4 µg/mL | 16 µg/mL | – | 16 µg/mL | –
O=C(O[C@@H]1Cc2c(O)cc(O)cc2O[C@@H]1c1cc(O)c(O)c(O)c1)c1cc(O)c(O)c(O)c1 [EGCG, Epigallocatechin gallate, reference compound] | 128 µg/mL (≈ 279 µM) | >128 µg/mL | 128 µg/mL (≈ 279 µM) | >128 µg/mL | >128 µg/mL | 64 µg/mL (≈ 140 µM) | 64 µg/mL (≈ 140 µM) | 64 µg/mL (≈ 140 µM) | 64 µg/mL (≈ 140 µM) | 64 µg/mL (≈ 140 µM) | 64 µg/mL (≈ 140 µM) | >128 µg/mL | >128 µg/mL | >128 µg/mL | >128 µg/mL | 128 µg/mL (≈ 279 µM) | >128 µg/mL | 256 µg/mL (≈ 558 µM) | 32 µg/mL (≈ 69.8 µM) | –
